In patent publication US20240043427A1 (Gilead Sciences, Inc., priority 2020, published 2024):

Assays:
CD73 [1] = target: T1, CD73 (Homo sapiens (Human), UniProt P21589); assay: MDA-MB-231 Cell Based CD73 Activity Assay (DMEM); conditions: MDA-MB-231-GFP cells, DMEM medium with 10% human plasma, 200 uM AMP
CD73 [2] = target: T1, CD73; assay type: biochemical; conditions: 1 mM NaH2PO4 in enzyme buffer, CD73 0.3 nM, AMP 15 uM

T1 sequence (P21589 27-574): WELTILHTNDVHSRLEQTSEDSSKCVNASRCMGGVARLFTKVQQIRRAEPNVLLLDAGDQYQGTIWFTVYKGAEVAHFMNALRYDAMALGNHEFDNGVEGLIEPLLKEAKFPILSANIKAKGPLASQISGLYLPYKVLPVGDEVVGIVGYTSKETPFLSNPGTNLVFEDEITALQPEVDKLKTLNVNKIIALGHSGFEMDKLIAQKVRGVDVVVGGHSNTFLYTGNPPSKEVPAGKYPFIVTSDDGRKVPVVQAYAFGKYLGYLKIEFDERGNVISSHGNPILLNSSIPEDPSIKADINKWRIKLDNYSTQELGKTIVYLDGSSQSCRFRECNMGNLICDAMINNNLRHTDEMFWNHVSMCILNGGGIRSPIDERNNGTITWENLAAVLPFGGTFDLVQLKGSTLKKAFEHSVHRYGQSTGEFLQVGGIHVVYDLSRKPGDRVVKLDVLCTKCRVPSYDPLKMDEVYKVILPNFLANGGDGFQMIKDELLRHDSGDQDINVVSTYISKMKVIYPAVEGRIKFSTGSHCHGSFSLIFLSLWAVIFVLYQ

SMILES	EC50 (CD73 [1]) [nM]	IC50 (CD73 [2]) [nM]
O=c1[nH]cc(-c2cc(N3CC(F)(C(F)(F)F)C3)n3nccc3n2)c(=O)[nH]1 [Example 244, 5-(7-(3-fluoro-3-(trifluoromethyl)azetidin-1-yl)pyrazolo[1,5-a]pyrimidin-5-yl)pyrimidine-2,4(1H,3H)-dione]	574	108
O=c1[nH]cc(-c2cc(N3CC4CC4(F)C3)c3nccn3n2)c(=O)[nH]1 (stereo not shown) [Example 355, 5-(8-(1-fluoro-3-azabicyclo[3.1.0]hexan-3-yl)imidazo[1,2-b]pyridazin-6-yl)pyrimidine-2,4(1H,3H)-dione]	14.5	7.56
O=c1[nH]cc(-c2cc([C@H]3C[C@@H]3c3ccc4c(C(F)(F)F)cn(CC(F)(F)F)c4n3)c3nccn3n2)c(=O)[nH]1 [Example 701, 5-(8-((1S,2S)-2-(1-(2,2,2-trifluoroethyl)-3-(trifluoromethyl)-1H-pyrrolo[2,3-b]pyridin-6-yl)cyclopropyl)imidazo[1,2-b]pyridazin-6-yl)pyrimidine-2,4(1H,3H)-dione]	2.56	3.04
O=C(Nc1ccccc1F)O[C@H]1CN(c2cc(-c3c[nH]c(=O)[nH]c3=O)nn3ccnc23)CC1(F)F [Example 241, (S)-1-(6-(2,4-dioxo-1,2,3,4-tetrahydropyrimidin-5-yl)imidazo[1,2-b]pyridazin-8-yl)-4,4-difluoropyrrolidin-3-yl (2-fluorophenyl)carbamate]	1.41	2.13
CC(C)C(=O)N1CCC12CCN(c1cc(-c3c[nH]c(=O)[nH]c3=O)nn3ccnc13)C2 (stereo not shown) [Example 657, 5-(8-(1-isobutyryl-1,6-diazaspiro[3.4]octan-6-yl)imidazo[1,2-b]pyridazin-6-yl)pyrimidine-2,4(1H,3H)-dione]	227	81.3
O=c1[nH]cc(-c2cc(N3CCC(F)(C(F)(F)F)C3)c3nccn3n2)c(=O)[nH]1 (stereo not shown) [Example 169, 5-(8-(3-fluoro-3-(trifluoromethyl)pyrrolidin-1-yl)imidazo[1,2-b]pyridazin-6-yl)pyrimidine-2,4(1H,3H)-dione]	189	73.9
O=c1[nH]cc(-c2cc(OCC(F)(F)C3CC3)c3nccn3n2)c(=O)[nH]1 [Example 689, 5-(8-(2-cyclopropyl-2,2-difluoroethoxy)imidazo[1,2-b]pyridazin-6-yl)pyrimidine-2,4(1H,3H)-dione]	10.6	3.02
O=c1[nH]cc(-c2cc([C@H]3C[C@@H]3c3ccc4cnn(CC(F)(F)F)c4c3F)c3ncnn3n2)c(=O)[nH]1 [Example 629, 5-(8-((1S,2S)-2-(7-fluoro-1-(2,2,2-trifluoroethyl)-1H-indazol-6-yl)cyclopropyl)-[1,2,4]triazolo[1,5-b]pyridazin-6-yl)pyrimidine-2,4(1H,3H)-dione]	0.05	0.2
N#Cc1ccnc(O[C@H]2CN(c3cc(-c4c[nH]c(=O)[nH]c4=O)nn4ccnc34)CC2(F)F)c1 [Example 342, 2-[(3S)-1-[6-(2,4-dioxo-1H-pyrimidin-5-yl)imidazo[1,2-b]pyridazin-8-yl]-4,4-difluoro-pyrrolidin-3-yl]oxypyridine-4-carbonitrile]	3.82	1.4
O=c1[nH]cc(-c2cc(N3CC(OC(F)F)C4(CC4)C3)c3nccn3n2)c(=O)[nH]1 (stereo not shown) [Example 343, 5-[8-[7-(difluoromethoxy)-5-azaspiro[2.4]heptan-5-yl]imidazo[1,2-b]pyridazin-6-yl]-1H-pyrimidine-2,4-dione]	129	48.2
C[C@@]1(F)CCN(c2cc(-c3c[nH]c(=O)[nH]c3=O)nn3ccnc23)C1 [Example 186, 5-[8-[(3R)-3-fluoro-3-methyl-pyrrolidin-1-yl]imidazo[1,2-b]pyridazin-6-yl]-1H-pyrimidine-2,4-dione]	22.3	7.57
O=C(CC1CN(c2cc(-c3c[nH]c(=O)[nH]c3=O)nn3ccnc23)CC1(F)F)NC1(C(F)(F)F)CC1 (stereo not shown) [Example 658, 2-(1-(6-(2,4-dioxo-1,2,3,4-tetrahydropyrimidin-5-yl)imidazo[1,2-b]pyridazin-8-yl)-4,4-difluoropyrrolidin-3-yl)-N-(1-(trifluoromethyl)cyclopropyl)acetamide]	7.88	1.87
CC(C)(C)CNc1cc(-c2c[nH]c(=O)[nH]c2=O)nn2ccnc12 [Example 668, 5-(8-(neopentylamino)imidazo[1,2-b]pyridazin-6-yl)pyrimidine-2,4(1H,3H)-dione]	857	> 250
O=c1[nH]cc(-c2cc(-c3cnn(CCN4CCOCC4)c3)c3nccn3n2)c(=O)[nH]1 [Example 511, 5-(8-(1-(2-morpholinoethyl)-1H-pyrazol-4-yl)imidazo[1,2-b]pyridazin-6-yl)pyrimidine-2,4(1H,3H)-dione]	431	> 250
O=c1[nH]cc(-c2cc(N3CC(F)(F)C4(CC4)C3)c3ncnn3n2)c(=O)[nH]1 [Example 84, 5-(8-(7,7-difluoro-5-azaspiro[2.4]heptan-5-yl)-[1,2,4]triazolo[1,5-b]pyridazin-6-yl)pyrimidine-2,4(1H,3H)-dione]	6.56	1.1
O=c1[nH]cc(-c2cc(N3CC(F)(C(F)(F)F)C3)c3ncnn3n2)c(=O)[nH]1 [Example 433, 5-(8-(3-fluoro-3-(trifluoromethyl)azetidin-1-yl)-[1,2,4]triazolo[1,5-b]pyridazin-6-yl)pyrimidine-2,4(1H,3H)-dione]	44.6	9.71
O=c1[nH]cc(-c2cc(N3CC4CCC3C4)c3nccn3n2)c(=O)[nH]1 (stereo not shown) [Example 643, 5-(8-(2-azabicyclo[2.2.1]heptan-2-yl)imidazo[1,2-b]pyridazin-6-yl)pyrimidine-2,4(1H,3H)-dione]	98.9	36.4
N#Cc1ccc([C@H]2C[C@@H]2c2cc(-c3c[nH]c(=O)[nH]c3=O)nn3ccnc23)cc1F [Example 467, 4-((1S,2S)-2-(6-(2,4-dioxo-1,2,3,4-tetrahydropyrimidin-5-yl)imidazo[1,2-b]pyridazin-8-yl)cyclopropyl)-2-fluorobenzonitrile]	3.86	0.85
O=C(NCC(F)(F)F)OCC1(F)CN(c2cc(-c3c[nH]c(=O)[nH]c3=O)nn3ccnc23)C1 [Example 437, (1-(6-(2,4-dioxo-1,2,3,4-tetrahydropyrimidin-5-yl)imidazo[1,2-b]pyridazin-8-yl)-3-fluoroazetidin-3-yl)methyl (2,2,2-trifluoroethyl)carbamate]	43.6	12.8
CC(=O)NC1CCN(c2cc(-c3c[nH]c(=O)[nH]c3=O)nc3ccnn23)C1 (stereo not shown) [Example 245, N-(1-(5-(2,4-dioxo-1,2,3,4-tetrahydropyrimidin-5-yl)pyrazolo[1,5-a]pyrimidin-7-yl)pyrrolidin-3-yl)acetamide]	747	170
O=c1[nH]cc(-c2cc([C@H]3C[C@@H]3c3ccc(Cl)cn3)c3ncnn3n2)c(=O)[nH]1 [Example 439, 5-(8-((1S,2S)-2-(5-chloropyridin-2-yl)cyclopropyl)-[1,2,4]triazolo[1,5-b]pyridazin-6-yl)pyrimidine-2,4(1H,3H)-dione]	2.63	0.77
O=C(CC1CN(c2cc(-c3c[nH]c(=O)[nH]c3=O)nn3ccnc23)CC1(F)F)NC12CC(C1)C2 (stereo not shown) [Example 661, N-(bicyclo[1.1.1]pentan-1-yl)-2-(1-(6-(2,4-dioxo-1,2,3,4-tetrahydropyrimidin-5-yl)imidazo[1,2-b]pyridazin-8-yl)-4,4-difluoropyrrolidin-3-yl)acetamide]	25.5	4.68
O=c1[nH]cc(-c2cc([C@H]3C[C@@H]3c3ncc(Br)cn3)c3nccn3n2)c(=O)[nH]1 [Example 380, 5-(8-((1S,2S)-2-(5-bromopyrimidin-2-yl)cyclopropyl)imidazo[1,2-b]pyridazin-6-yl)pyrimidine-2,4(1H,3H)-dione]	14.3	3.43
O=c1[nH]cc(-c2cc(N3CC(F)(COc4ccc(C(F)(F)F)cn4)C3)c3nccn3n2)c(=O)[nH]1 [Example 435, 5-(8-(3-fluoro-3-(((5-(trifluoromethyl)pyridin-2-yl)oxy)methyl)azetidin-1-yl)imidazo[1,2-b]pyridazin-6-yl)pyrimidine-2,4(1H,3H)-dione]	66	6
O=c1[nH]cc(-c2cc(N3CCC(c4cccc(C(F)(F)F)c4)C3)c3nccn3n2)c(=O)[nH]1 (stereo not shown) [Example 249, 5-(8-(3-(3-(trifluoromethyl)phenyl)pyrrolidin-1-yl)imidazo[1,2-b]pyridazin-6-yl)pyrimidine-2,4(1H,3H)-dione]	249	46.1
CC1CN(c2cc(-c3c[nH]c(=O)[nH]c3=O)nc3ccnn23)CC1(F)F (stereo not shown) [Example 221, 5-(7-(3,3-difluoro-4-methylpyrrolidin-1-yl)pyrazolo[1,5-a]pyrimidin-5-yl)pyrimidine-2,4(1H,3H)-dione]	74.9	13.1
O=C1N(CC(F)(F)C2CC2)c2cc([C@H]3C[C@@H]3c3cc(-c4c[nH]c(=O)[nH]c4=O)nn4ccnc34)ccc2C12CC2 (racemic) [Example 738, 5-(8-((1S,2S)-2-(1′-(2-cyclopropyl-2,2-difluoroethyl)-2′-oxospiro[cyclopropane-1,3′-indolin]-6′-yl)cyclopropyl)imidazo[1,2-b]pyridazin-6-yl)pyrimidine-2,4(1H,3H)-dione]	0.21	1.74
CC1(C)C2CN(c3cc(-c4c[nH]c(=O)[nH]c4=O)nn4ccnc34)CC21 (stereo not shown) [Example 228, 5-(8-(6,6-dimethyl-3-azabicyclo[3.1.0]hexan-3-yl)imidazo[1,2-b]pyridazin-6-yl)pyrimidine-2,4(1H,3H)-dione]	146	31.2
O=c1[nH]cc(-c2cc([C@H]3C[C@@H]3c3cnc4cnn(CC(F)(F)F)c4c3)c3ncc(F)n3n2)c(=O)[nH]1 [Example 628, 5-(3-fluoro-8-((1S,2S)-2-(1-(2,2,2-trifluoroethyl)-1H-pyrazolo[4,3-b]pyridin-6-yl)cyclopropyl)imidazo[1,2-b]pyridazin-6-yl)pyrimidine-2,4(1H,3H)-dione]	0.23	0.73
